Patent publication US7705007B2, “Cis-imidazolines” (Hoffmann-La Roche Inc., priority 2006, dated 2010)
Structures can show the parent of a compound that is named as a salt.

Molecular target: interaction between p53 and MDM2 proteins (recombinant GST-tagged MDM2 / p53 peptide) (Homo sapiens, UniProt Q00987)
Assay: HTRF assay of inhibition of the p53-MDM2 interaction (GST-MDM2 binding to biotinylated p53 peptide)
Conditions: 90 nM biotinylated p53 peptide, 160 ng/mL GST-MDM2, 37° C. 1 h
Protocol: The ability of the compounds to inhibit the interaction between p53 and MDM2 proteins was measured by an HTRF (homogeneous time-resolved fluorescence) assay in which recombinant GST-tagged MDM2 binds to a peptide that resembles the MDM2-interacting region of p53 (Lane et al.). Binding of GST-MDM2 protein and p53-peptide (biotinylated on its N-terminal end) is registered by the FRET (fluorescence resonance energy transfer) between Europium (Eu)-labeled anti-GST antibody and streptavidin-conjugated Allophycocyanin (APC).
Test is performed in black flat-bottom 384-well plates (Costar) in a total volume of 40 uL containing: 90 nM biotinylate peptide, 160 ng/mL GST-MDM2, 20 nM streptavidin-APC (PerkinElmerWallac), 2 nM Eu-labeled anti-GST-antibody (PerkinElmerWallac), 0.2% bovine serum albumin (BSA), 1 mM dithiothreitol (DTT) and 20 mM Tris-borate saline (TBS) buffer as follows: Add 10 uL of GST-MDM2 (640 ng/mL working solution) in reaction buffer to each well. Add 10 uL diluted compounds (1:5 dilution in reaction buffer) to each well, mix by shaking. Add 20 uL biotinylated p53 peptide (180 nM working solution) in reaction buffer to each well and mix on shaker. Incubate at 37° C. for 1 h. Add 20 uL streptavidin-APC and Eu-anti-GST antibody mixture (6 nM Eu-anti-GST and 60 nM streptavidin-APC working solution) in TBS buffer with 0.2% BSA, shake at room temperature for 30 minutes and read using a TRF-capable plate reader at 665 and 615 nm (Victor 5, Perkin ElmerWallac). If not specified, the reagents were purchased from Sigma Chemical Co.

interaction between p53 and MDM2 proteins (recombinant GST-tagged MDM2 / p53 peptide), sequence (Q00987 whole entry): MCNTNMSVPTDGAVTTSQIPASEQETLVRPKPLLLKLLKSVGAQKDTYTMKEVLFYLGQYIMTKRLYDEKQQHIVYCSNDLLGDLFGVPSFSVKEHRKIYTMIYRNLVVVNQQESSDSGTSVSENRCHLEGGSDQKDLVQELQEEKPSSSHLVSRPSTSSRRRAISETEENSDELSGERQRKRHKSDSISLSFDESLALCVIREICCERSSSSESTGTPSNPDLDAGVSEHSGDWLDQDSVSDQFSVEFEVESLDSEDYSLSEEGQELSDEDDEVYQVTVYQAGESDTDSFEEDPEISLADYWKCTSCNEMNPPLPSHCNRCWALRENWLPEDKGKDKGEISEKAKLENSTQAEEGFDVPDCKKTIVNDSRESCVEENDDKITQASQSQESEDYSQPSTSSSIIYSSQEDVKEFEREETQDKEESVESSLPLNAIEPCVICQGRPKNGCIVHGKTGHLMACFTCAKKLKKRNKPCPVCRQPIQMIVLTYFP

| SMILES | IC50 [nM] |
| --- | --- |
| CCOc1nc(C)ncc1C1=N[C@@H](c2ccc(Cl)cc2)[C@@H](c2ccc(Cl)cc2)N1C(=O)N1CCN(CC(=O)N(C)C)CC1 (relative stereo) [Example 17, cis-2-{4-[4,5-Bis-(4-chloro-phenyl)-2-(4-ethoxy-2-methyl-pyrimidin-5-yl)-4,5-dihydro-imidazole-1-carbonyl]-piperazin-1-yl}-N,N-dimethyl-acetamide] | 677 |
| CCOc1nc(C(F)(F)F)ncc1C1=N[C@@H](c2ccc(Cl)cc2)[C@@H](c2ccc(Cl)cc2)N1C(=O)N1CCN(CCS(C)(=O)=O)CC1 (relative stereo) [Example 6, cis-[4,5-Bis-(4-chloro-phenyl)-2-(4-ethoxy-2-trifluoromethyl-pyrimidin-5-yl)-4,5-dihydro-imidazol-1-yl]-[4-(2-methanesulfonyl-ethyl)-piperazin-1-yl]-methanone] | 2890 |
| CCOc1ccsc1C1=N[C@@H](c2ccc(Cl)cc2)[C@@H](c2ccc(Cl)cc2)N1C(=O)N1CCN(CC(=O)N(CCOC)CCOC)CC1 [Example 36, 2-{4-[(4S,5R)-4,5-Bis-(4-chloro-phenyl)-2-(3-ethoxy-thiophen-2-yl)-4,5-dihydro-imidazole-1-carbonyl]-piperazin-1-yl}-N,N-bis-(2-methoxy-ethyl)-acetamide] | 54 |

The remaining molecules from weak to strong by IC50, led by results:

| IC50 [nM] | SMILES |
| --- | --- |
| 110 | CCOc1ccsc1C1=N[C@@H](c2ccc(Cl)cc2)[C@@H](c2ccc(Cl)cc2)N1C(=O)N1CCN(CC(=O)NC(C)(C)C)CC1 [Example 34, 2-{4-[(4S,5R)-4,5-Bis-(4-chloro-phenyl)-2-(3-ethoxy-thiophen-2-yl)-4,5-dihydro-imidazole-1-carbonyl]-piperazin-1-yl}-N-tert-butyl-acetamide] |
| 46 | CCOc1nc(C(C)(C)C)ncc1C1=N[C@@H](c2ccc(Cl)cc2)[C@@H](c2ccc(Cl)cc2)N1C(=O)N1CCNC(=O)C1 (relative stereo) [Example 20, cis-4-[2-(2-tert-Butyl-4-ethoxy-pyrimidin-5-yl)-4,5-bis-(4-chloro-phenyl)-4,5-dihydro-imidazole-1-carbonyl]-piperazin-2-one hydrochloride] |
